Experimental data from US8440677B2, “Atropisomers of 2-purinyl-3-tolyl-quinazolinone derivatives and methods of use” (Gilead Calistoga LLC, priority 2009, dated 2013).
Where two headings read alike, the source gives them in different places.

Assays:
p110δ [1] = biological target: p110δ (Homo sapiens, UniProt O00329); assay: In vitro activity against p110 isoforms, biochemical assays (FIG. 5A); settings: versus p110alpha, p110beta, p110 gamma isoforms
Excerpt: (§1) The in vitro activity of 1 and atropisomers, 1(S) and 1(R), have similar profiles in various isoforms of p110 inhibition as shown in FIGS. 5A and 5B. […] Although their in vitro potency appears to be similar, there are surprising in vivo differences observed between 1(S) and 1(R) as discovered in pharmacokinetic studies, mainly relating to the increased exposure of 1(S) and decreased exposure of 1(R) in the subject.
Target sequence in this assay (P27986 whole entry partner, one chain of several, canonical isoform): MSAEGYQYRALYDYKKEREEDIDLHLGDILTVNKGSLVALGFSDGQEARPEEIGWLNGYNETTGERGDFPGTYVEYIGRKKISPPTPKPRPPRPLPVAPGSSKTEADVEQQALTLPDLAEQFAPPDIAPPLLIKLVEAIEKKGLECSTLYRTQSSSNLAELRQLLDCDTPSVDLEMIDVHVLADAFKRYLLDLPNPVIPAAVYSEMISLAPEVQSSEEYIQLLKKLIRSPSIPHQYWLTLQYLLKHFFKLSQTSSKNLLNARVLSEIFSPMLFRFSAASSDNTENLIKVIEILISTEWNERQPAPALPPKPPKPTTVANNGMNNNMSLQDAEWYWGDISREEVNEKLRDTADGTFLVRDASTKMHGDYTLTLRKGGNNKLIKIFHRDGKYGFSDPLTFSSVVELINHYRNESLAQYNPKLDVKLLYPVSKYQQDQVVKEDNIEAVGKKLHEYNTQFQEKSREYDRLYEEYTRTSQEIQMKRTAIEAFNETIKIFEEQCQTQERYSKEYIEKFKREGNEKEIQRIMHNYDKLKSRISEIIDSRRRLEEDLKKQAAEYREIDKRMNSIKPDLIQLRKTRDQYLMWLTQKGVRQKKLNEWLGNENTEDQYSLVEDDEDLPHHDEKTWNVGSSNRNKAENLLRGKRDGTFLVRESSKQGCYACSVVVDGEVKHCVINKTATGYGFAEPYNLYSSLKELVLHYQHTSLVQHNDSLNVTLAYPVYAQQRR

p110δ [2] = biological target: T1, p110δ (Homo sapiens, UniProt O00329); assay: In vitro activity against p110 isoforms, cell-based assays (FIG. 5B); settings: versus other p110 isoforms
T1 sequence (O00329 1-1044): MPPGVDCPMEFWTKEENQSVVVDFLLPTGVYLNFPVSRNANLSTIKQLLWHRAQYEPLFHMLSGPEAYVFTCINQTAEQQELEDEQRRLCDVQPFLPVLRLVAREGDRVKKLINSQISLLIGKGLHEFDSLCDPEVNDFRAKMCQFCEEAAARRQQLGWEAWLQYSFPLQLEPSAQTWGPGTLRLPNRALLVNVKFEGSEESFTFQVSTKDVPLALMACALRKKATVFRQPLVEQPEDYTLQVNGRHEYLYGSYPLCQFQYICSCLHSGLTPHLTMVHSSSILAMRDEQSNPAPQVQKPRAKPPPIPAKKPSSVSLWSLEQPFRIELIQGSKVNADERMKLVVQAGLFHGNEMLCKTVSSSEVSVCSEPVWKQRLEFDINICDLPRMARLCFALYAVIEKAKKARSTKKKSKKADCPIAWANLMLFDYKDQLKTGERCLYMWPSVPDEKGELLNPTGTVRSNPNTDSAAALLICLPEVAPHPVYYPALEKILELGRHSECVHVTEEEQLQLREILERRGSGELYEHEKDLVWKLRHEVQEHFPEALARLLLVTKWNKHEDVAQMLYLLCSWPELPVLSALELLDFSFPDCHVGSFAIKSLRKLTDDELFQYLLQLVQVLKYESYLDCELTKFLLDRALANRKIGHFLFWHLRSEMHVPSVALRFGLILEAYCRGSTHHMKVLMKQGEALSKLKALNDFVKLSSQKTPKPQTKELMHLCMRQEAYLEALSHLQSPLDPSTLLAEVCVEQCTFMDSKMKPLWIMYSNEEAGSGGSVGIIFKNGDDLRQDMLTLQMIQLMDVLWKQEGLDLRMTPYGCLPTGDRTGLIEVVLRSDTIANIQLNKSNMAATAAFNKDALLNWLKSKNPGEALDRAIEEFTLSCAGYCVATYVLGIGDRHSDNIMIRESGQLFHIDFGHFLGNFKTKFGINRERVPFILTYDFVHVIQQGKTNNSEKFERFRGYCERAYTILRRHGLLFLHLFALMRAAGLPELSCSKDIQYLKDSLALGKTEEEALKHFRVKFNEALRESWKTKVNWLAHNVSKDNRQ
Excerpt: as §1

[3] = Solubility in a series of aqueous solvents (FIG. 4); assay type: physicochemical; settings: variety of aqueous solutions
[4] = Plasma concentration of atropisomers in rats after oral dosing with racemic 1 (FIG. 6); assay type: in vivo; settings: female rats, single 50 mg/kg oral dose of racemic 1, 8 hours after dosing
[5] = Plasma concentration of atropisomers in dogs after oral dosing with racemic 1 (FIG. 7); assay type: in vivo; settings: female dogs, single 50 mg/kg oral dose of racemic 1
Method: The tagged racemic mixture or separated atropisomers were administered in rats, dogs, and human subjects through oral and i.v. routes. The compounds were dissolved in PEG 100 such that any difference in dissolution rates would not play a role in the pharmacokinetic profile of the compounds. […] After administration of the compound, blood plasma of the subjects were sampled over time and evaluated by analytical HPLC methods developed to identify and measure concentrations of compound 1(S) or 1(R) present in the sample. It was observed that the most abundant isomer measured in the plasma is compound 1(S), which accounts for 70-80% of exposure to the subject.
In approximately 1 hour after dosing the maximum concentration of compounds 1(S) and 1(R) is reached. At that point, the concentration of 1(R) is less than half the concentration of compound 1(S). […] These large differences in pharmacokinetic behavior were not predictable.

[6] = Interconversion of atropisomers in blood plasma; assay type: in vivo; settings: within 4 hours after administration of the atropisomer
Excerpt: Another possible explanation for the difference in exposure is that 1(R) is interconverted to 1(S) over time. […] However, this small amount of conversion should only account for a fraction of the difference in exposure rates in vivo and other factors, such as selective elimination of 1(R), are likely to play the major role in the lowered exposure rate of 1(R).

[7] = Elimination in urine by LC-MS; assay type: in vivo; settings: compared with 1(S)
[8] = Metabolic products in rat urine by LC-MS (FIG. 12); assay type: in vivo; settings: rats, single 50 mg/kg oral dose of the atropisomer
Method: A single 50 mg/kg oral dose of either atropisomer 1(S) or 1(R) was administered to rat subjects. The rat urine was subsequently sampled and analyzed using LC-MS instrumentation.

[9] = human subjects
[10] = for plasma concentration at 24 hours: female rats, single dose 1.5 mg/kg
[11] = human; for AUClast / Cmax / T½: 25 mg racemate daily for 7 days, 40 nCi labeled spike on day 4
[12] = human subject, oral radiolabeled atropisomer; for metabolite formation in plasma, 72 hours: 72 hours after administration
clinical = settings: human, plasma, po, 100 mg
[13] = Plasma concentration in rats after single oral dose of 1(S) or 1(R) (FIG. 9B); assay type: in vivo, rat; settings: female rats, single oral dose 1.5 mg/kg, 12 hour time point
[14] = Plasma concentration in human subjects after a single oral dose of 100 mg or 10 mg (FIG. 10); assay type: in vivo
[15] = Human pharmacokinetics, racemic mixture versus 1(S) at 10 mg once daily; assay type: in vivo
Method: Human pharmacokinetic was obtained after both the racemic mixture and 1(S) were administered at 10 mg once daily. […] Since the dose is low and well absorbed, as evidenced by the determination of 100% bioavailability, it is likely that the 1(R) metabolism is greater. The greater extent and complexity of 1(R) metabolism was supported by studies on human and rat in vivo metabolism as well as in vitro studies of human liver microsomes and protein binding.

[16] = test system: collagen induced arthritis (CIA) rats; assay: Collagen induced arthritis (CIA) rats; assay type: in vivo, rat; settings: compared to vehicle
[17] = compounds dissolved in PEG 100
in vivo = settings: female, Sprague Dawley, rat, iv
[18] = Metabolites in human plasma; settings: human subjects dosed with the substance
[19] = Metabolites in human urine by LC/MS/MS; settings: humans
Excerpt: Urine was collected from humans dosed the racemic mixture and evaluated for possible metabolites using LC/MS/MS.

[20] = single 100 mg oral dose of racemic 1
[21] = female SD rats, single bolus i.v.
[22] = 25 mg racemate daily, labeled spike on day 4, after day 1

Cc1ccccc1-n1c(Cn2cnc3c(N)ncnc32)nc2cccc(C)c2c1=O (single isomer, unassigned) [Compound 1(R), 2-((6-amino-9H-purin-9-yl)methyl)-5-methyl-3-o-tolylquinazolin-4(3H)-one]
p110δ inhibition in biochemical assays (p110δ [1]): selective p110δ inhibition | p110δ inhibition in cell-based assays (p110δ [2]): selective p110δ inhibition | solubility differences between 1(S) and 1(R) [3]: Modest solubility differences | average plasma concentration of 1(R) relative to 1(S) [4]: approximately one-fourth | plasma concentration of 1(R) relative to 1(S) at maximum concentration [5]: less than half | time to maximum plasma concentration [5]: approximately 1 hour | conversion to the other atropisomer in blood plasma [6]: approximately 14% | elimination in urine [7]: preferentially eliminated in urine | metabolic products found in urine [8]: more metabolic products | plasma concentration of 1(R) relative to 1(S) at maximum concentration [9, 20]: less than half | Vz of 1(R) relative to 1(S) or racemic mixture [10, 21]: about 2.6 times | half life of 1(R) relative to 1(S) or racemic mixture 1 [10, 21]: about 2.8 times | plasma concentration at 24 hours [10]: very low | AUClast [11]: 21676 neq*h/mL | Cmax [11]: 1946 neq/mL | concentration of 14C radiolabeled material in blood plasma ([11]; 25 mg racemate daily, labeled spike on day 4, 50 hours from dosing): 10-50 neq/mL | concentration of 1(R) relative to 1(S) [11, 22]: about one-fourth | concentration of 14C radiolabeled material in blood plasma [11, 22]: about 500 neq/mL | metabolite formation in plasma, 72 hours [12]: primarily the metabolites are detected | half-life (clinical; half-life, human subjects, single 100 mg oral dose of racemic 1): ~9 h

Cc1ccccc1-n1c(Cn2cnc3c(N)ncnc32)nc2cccc(C)c2c1=O (single isomer, unassigned) [Compound 1(S), 2-((6-amino-9H-purin-9-yl)methyl)-5-methyl-3-o-tolylquinazolin-4(3H)-one]
p110δ inhibition in biochemical assays (p110δ [1]): selective p110δ inhibition | p110δ inhibition in cell-based assays (p110δ [2]): selective p110δ inhibition | solubility differences between 1(S) and 1(R) [3]: Modest solubility differences | time to maximum plasma concentration [5]: approximately 1 hour | plasma concentration of 1(S) versus 1(R) [13]: greatly exceed | maximum plasma concentration of 1(S) relative to 1(R) ([14]; single oral dose of 10 mg): about double | maximum plasma concentration of 1(S) relative to 1(R) ([14]; single oral dose of 100 mg): over 2 times | conversion to the other atropisomer in blood plasma [6]: less than 1% | metabolic products found in urine [8]: mainly one compound | Cmax of 1(S) greater than racemic mixture [15]: 30% | increase of AUC0-24 of 1(S) over racemic mixture ([15]; Day 1): 2.4 fold | increase of AUC0-24 of 1(S) over racemic mixture ([15]; Day 7): 40% | anti-collagen antibody levels ([16]; FIG. 15): reduction of collagen antibody levels | X-ray score (radiographic assessment) ([16]; FIG. 16): reduction in the X-ray score | histopathology, dark areas of tissue images ([16]; similar to MTX, FIGS. 17A-D): reduced | arthritis score ([16]; versus days post compound dosing, FIG. 14): activity in reducing the severity of arthritis | share of exposure to the subject (most abundant isomer in plasma) [17]: 70-80% | half-life in humans (in words) ([9]; oral racemic 1, greater than in dogs): several days | share of the exposure at the maximum concentration point [9, 20]: approximately 70% | plasma concentration of 1(S) relative to 1(R) ([9]; single 100 mg oral dose of racemic 1, 72 hours post-dosing): over 10 times | plasma concentration at 24 hours [10]: very low | AUClast [11]: 90511 neq*h/mL | Cmax [11]: 3930 neq/mL | T½ [11]: 63.9 h | AUC of 1(S) relative to 1(R) ([11]; data of FIG. 11): over 4 times | Cmax of 1(S) relative to 1(R) ([11]; data of FIG. 11): twice | half-life of 1(S) relative to 1(R) ([11]; data of FIG. 11): 6 times | metabolite formation in plasma, 1 hour ([12]; 1 hour after administration): remains largely unmodified | metabolite formation in plasma, 72 hours [12]: still less than the amount of the parent compound | AUC (in vivo; plasma, 1.5 mg/kg): 865 ± 212 ng·h/mL | Vd (in vivo; plasma, 1.5 mg/kg): 5.77 ± 2.74 L/kg | clearance (in vivo; plasma, 1.5 mg/kg): 30.6 mL/min/kg | half-life (in vivo; plasma, 1.5 mg/kg): 2.5 ± 1.6 h | half-life (clinical): > 72 h | number of metabolites observed in plasma [18]: one

Cc1ccccc1-n1c(Cn2cnc3c(N)ncnc32)nc2cccc(C)c2c1=O (single isomer, unassigned) [Compound 1, 2-((6-amino-9H-purin-9-yl)methyl)-5-methyl-3-o-tolylquinazolin-4(3H)-one]
p110δ inhibition in biochemical assays (p110δ [1]): selective p110δ inhibition | p110δ inhibition in cell-based assays (p110δ [2]): selective p110δ inhibition | AUClast [11]: 51,032 ± 22,383 neq*h/mL | Cmax [11]: 2780 ± 1163 neq/mL | T½ [11]: 69.9 ± 26.6 h | AUC (in vivo; in vivo, 3 mg/kg): 1970 ± 243 ng·h/mL | Vd (in vivo; in vivo, 3 mg/kg): 5.4 ± 1.57 L/kg | clearance (in vivo; in vivo, 3 mg/kg): 26 mL/min/kg | half-life (in vivo; in vivo, 3 mg/kg): 2.5 ± 0.7 h | number of metabolites observed in plasma ([18]; listed as racemic mixture): 2 | number of metabolites confirmed in urine ([19]; authentic racemic standards, achiral method): 5 | total number of metabolites observed in urine ([19]; counting atropisomers of metabolites): 9
